One test has as its target firefly luciferase (Photinus pyralis, UniProt P08659). Particulars: strong inhibitor of the luciferase; read-out: IC50 as inhibitor of light production; cited from earlier work.
Another test has as its system living watercress plant. The test can be described thus: light emission in living watercress plant after LIN/PBIN infiltration of nanoparticles. Particulars: 1-2 hours compared to 30 minutes incubation of SNP-Luc (LIN) before free luciferin 0.1 mM. In kind it is in vivo, watercress (Nasturtium officinale).
Test [1] concerns firefly luciferase-luciferin reaction. The test can be described thus: light production and light duration in vitro (test tube mixture, photos analysed by Image J). Particulars: for light duration extended by: PLGA-LH2 1 mM, CS-CoA 625 μM. In kind it is biochemical.

Chain of firefly luciferase (P08659 whole entry): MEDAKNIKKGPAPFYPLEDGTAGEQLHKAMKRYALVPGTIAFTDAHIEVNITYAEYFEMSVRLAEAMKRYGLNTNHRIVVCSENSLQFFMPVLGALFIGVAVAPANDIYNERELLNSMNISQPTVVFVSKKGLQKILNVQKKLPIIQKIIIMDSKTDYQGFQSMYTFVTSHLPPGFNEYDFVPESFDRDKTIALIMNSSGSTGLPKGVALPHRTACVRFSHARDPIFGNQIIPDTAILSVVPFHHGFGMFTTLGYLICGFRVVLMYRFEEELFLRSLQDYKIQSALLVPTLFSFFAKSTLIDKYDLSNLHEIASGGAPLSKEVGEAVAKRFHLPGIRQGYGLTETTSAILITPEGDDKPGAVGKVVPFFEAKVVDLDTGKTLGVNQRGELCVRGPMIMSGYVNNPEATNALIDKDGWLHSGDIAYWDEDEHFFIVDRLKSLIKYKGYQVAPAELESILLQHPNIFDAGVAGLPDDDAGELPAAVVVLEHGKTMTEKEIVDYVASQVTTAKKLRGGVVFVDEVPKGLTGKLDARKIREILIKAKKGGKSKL
Description for living watercress plant: Leaf discs of spinach plants 3 week-olds were infiltrated with 30 mM HEPES buffer (pH 7.4) via PBIN at speed of 0.4 bar/s and cell membranes were stained with FM 464 fluorescent dye (red).
SNP-Luc was infiltrated by LIN 1 h in advance, and PLGA-LH alone or PLGA-LH and CS-CoA were infused into a watercress plant by PBIN. […] To extend the illumination time, the third nanoparticle class, CS-CoA, was co-infiltrated with PLGA-LH by PBIN. […] In FIG. 3E, a and b represent concentration of SNP-Luc (μM) and concentration of PLGA-LH2 (mM), respectively. […] Maximum number of photons/sec was obtained from the first photo (analyzed by Image J). […]
Infiltration of nanoparticles in living plants. […] The pressure was monitored by digital hydronic manometer (Dwyer instruments, IN, USA). […]
Estimation of photon numbers from light emitting plants. The power of LED light was first measured at 12.70 cm away using a photo-detector (λ=530 nm, detector surface area=1 cm^2) (PM100, ThorLabs, NJ, USA). The number of photons incident on the photo-detector was determined using the measured power (10 nW) divided by the energy of a single photon at 530 nm, given by the equation below
An image of the LED light was taken at 68.58 cm of distance with 1/1000 s exposure to avoid saturation of pixels and converted into quantitative values using ImageJ (Mean value=0.016).

In the case of `Nc1ncnc2c1ncn2C1OC(COP(=O)(O)OC(=O)c2csc(-c3nc4ccc(O)cc4s3)n2)C(O)C1O` (centres unmarked) [dehydroluciferyl-adenylate], the IC50 at firefly luciferase was 5 nM.
“SNP-Luc: firefly luciferase immobilized on 7 nm GPTS-PEG amine silica nanoparticles”: the “initial number of photons, times higher” value in the test with living watercress plant was in the range of 4 to 7 times. The results for the “light duration extended by” value in test [1] (200 nM SNP-Luc) and in test [1] (4 μM SNP-Luc) were 22 h and 6 h, respectively. Further, in test [1] (1 mL mixture, 12 nM luciferase, 100 μM luciferin, 100 μM ATP), the “light duration compared with free luciferase” value is “longer light duration than that of free luciferase”.
